Reference: US9096589B2, “Heteroaromatic phenylimidazole derivatives as PDE10A enzyme inhibitors” (H. Lundbeck A/S, priority 2009, dated 2015)

These compounds were tested against PDE10A (Homo sapiens (Human), UniProt Q9Y233) (assay: PDE10A inhibition assay).
Assay type: biochemical
Experimental: Active PDE10A enzyme is prepared in a number of ways for use in PDE assays (Loughney, K. et al. Gene 1999, 234, 109-117; Fujishige, K. et al. Eur J. Biochem. 1999, 266, 1118-1127 and Soderling, S. et al. Proc. Natl. Acad. Sci. 1999, 96, 7071-7076). PDE10A can be expressed as full-length proteins or as truncated proteins, as long as they express the catalytic domain. PDE10A can be prepared in different cell types, for example insect cells or E. coli. An example of a method to obtain catalytically active PDE10A is as follows: The catalytic domain of human PDE10A (amino acids 440-779 from the sequence with accession number NP 006652) is amplified from total human brain total RNA by standard RT-PCR and is cloned into the BamH1 and Xho1 sites of the pET28a vector (Novagen). Expression in coli is performed according to standard protocols. Briefly, the expression plasmids are transformed into the BL21(DE3) E. coli strain, and 50 mL cultures inoculated with the cells allowed to grow to an OD600 of 0.4-0.6 before protein expression is induced with 0.5 mM IPTG. Following induction, the cells are incubated overnight at room temperature, after which the cells are collected by centrifugation. Cells expressing PDE10A are resuspended in 12 mL (50 mM TRIS-HCl-pH8.0, 1 mM MgCl2 and protease inhibitors). The cells are lysed by sonication, and after all cells are lysed, TritonX100 is added according to Novagen protocols.
A PDE10A assay may for example, be performed as follows: The assay is performed in 60 uL samples containing a fixed amount of the relevant PDE enzyme (sufficient to convert 20-25% of the cyclic nucleotide substrate); a buffer (50 mM HEPES7.6; 10 mM MgCl2; 0.02% Tween20), 0.1 mg/ml BSA, 225 pCi of ^3H-labelled cyclic nucleotide substrate, tritium labeled cAMP to a final concentration of 5 nM and varying amounts of inhibitors. Reactions are initiated by addition of the cyclic nucleotide substrate, and reactions are allowed to proceed for one hr at room temperature before being terminated through mixing with 15 uL 8 mg/mL yttrium silicate SPA beads (Amersham). The beads are allowed to settle for one hr in the dark before the plates are counted in a Wallac 1450 Microbeta counter. The measured signal can be converted to activity relative to an uninhibited control (100%) and IC50 values can be calculated using the Xlfit extension to EXCEL.

Sequence of PDE10A (Q9Y233 716-1055): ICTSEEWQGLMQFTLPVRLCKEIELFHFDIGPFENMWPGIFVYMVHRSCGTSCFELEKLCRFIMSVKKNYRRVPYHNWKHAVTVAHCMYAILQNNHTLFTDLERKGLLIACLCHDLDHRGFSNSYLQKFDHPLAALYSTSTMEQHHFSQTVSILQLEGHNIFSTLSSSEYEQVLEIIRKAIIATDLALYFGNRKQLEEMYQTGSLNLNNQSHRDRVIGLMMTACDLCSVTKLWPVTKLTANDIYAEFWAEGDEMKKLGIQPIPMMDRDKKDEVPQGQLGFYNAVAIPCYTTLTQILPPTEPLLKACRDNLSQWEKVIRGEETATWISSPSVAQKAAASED

IC50	SMILES
97 nM	Cc1cccc2nc(CCc3nc(-c4cccs4)cn3C[C@@H](O)CN(C)C(C)C)nn12 [(S)-1-(Isopropyl-methyl-amino)-3-{2-[2-(5-methyl-[1,2,4]triazolo[1,5-a]pyridin-2-yl)-ethyl]-4-thiophen-2-yl-imidazol-1-yl}-propan-2-ol]
2.8 nM	Cc1cccc2nc(CCc3nc(-c4cccs4)cn3C[C@@H](O)CCl)nn12 [(R)-1-Chloro-3-{2-[2-(5-methyl-[1,2,4]triazolo[1,5-a]pyridin-2-yl)-ethyl]-4-thiophen-2-yl-imidazol-1-yl}-propan-2-ol]
46 nM	Cc1cccc2nc(CCc3nc(-c4cccs4)cn3C[C@@H](O)CNC(C)C)nn12 [(S)-1-Isopropylamino-3-{2-[2-(5-methyl-[1,2,4]triazolo[1,5-a]pyridin-2-yl)-ethyl]-4-thiophen-2-yl-imidazol-1-yl}-propan-2-ol]
1.7 nM	COc1ccc(C)n2nc(CCc3nc(-c4cccs4)cn3CCCC#N)nc12 [4-{2-[2-(8-Methoxy-5-methyl-[1,2,4]triazolo[1,5-a]pyridin-2-yl)-ethyl]-4-thiophen-2-yl-imidazol-1-yl}-butyronitrile]
36 nM	Cc1cccn2nc(CCc3nc(-c4cncs4)cn3C)nc12 [8-Methyl-2-[2-(1-methyl-4-thiazol-5-yl-1H-imidazol-2-yl)-ethyl]-[1,2,4]triazolo[1,5-a]pyridine]
58 nM	Cc1cccc2nc(CCc3nc(-c4cccs4)cn3C[C@@H](O)CN3CCCC3)nn12 [(S)-1-{2-[2-(5-Methyl-[1,2,4]triazolo[1,5-a]pyridin-2-yl)-ethyl]-4-thiophen-2-yl-imidazol-1-yl}-3-pyrrolidin-1-yl-propan-2-ol]
47 nM	Cc1cccc2nc(CCc3nc(-c4cccs4)cn3C[C@@H](O)CN(C)C)nn12 [(S)-1-Dimethylamino-3-{2-[2-(5-methyl-[1,2,4]triazolo[1,5-a]pyridin-2-yl)-ethyl]-4-thiophen-2-yl-imidazol-1-yl}-propan-2-ol]
77 nM	CCN(CC)C[C@H](O)Cn1cc(-c2cccs2)nc1CCc1nc2cccc(C)n2n1 [(S)-1-Diethylamino-3-{2-[2-(5-methyl-[1,2,4]triazolo[1,5-a]pyridin-2-yl)-ethyl]-4-thiophen-2-yl-imidazol-1-yl}-propan-2-ol]
160 nM	Cc1cc(C)n2cc(CCc3nc(-c4cccs4)cn3C(C)C)nc2n1 [2-[2-(1-Isopropyl-4-thiophen-2-yl-1H-imidazol-2-yl)-ethyl]-5,7-dimethyl-imidazo[1,2-a]pyrimidine]
97 nM	Cc1cc(C)n2cc(/C=C/c3nc(-c4cncs4)cn3C)nc2n1 [5,7-Dimethyl-2-[(E)-2-(1-methyl-4-thiazol-5-yl-1H-imidazol-2-yl)-vinyl]-imidazo[1,2-a]pyrimidine]
39 nM	Cc1cccc2nc(CCc3nc(-c4cncs4)cn3C)nn12 [5-Methyl-2-[2-(1-methyl-4-thiazol-5-yl-1H-imidazol-2-yl)-ethyl]-[1,2,4]triazolo[1,5-a]pyridine]
16 nM	Cc1cccc2nc(CCc3nc(-c4cccs4)cn3C[C@@H](O)CN(C)CCO)nn12 [(S)-1-[(2-Hydroxy-ethyl)-methyl-amino]-3-{2-[2-(5-methyl-[1,2,4]triazolo[1,5-a]pyridin-2-yl)-ethyl]-4-thiophen-2-yl-imidazol-1-yl}-propan-2-ol]
58 nM	COCC(O)Cn1cc(-c2cncs2)nc1CCc1cn2c(C)cc(C)nc2n1 (stereo not drawn) [1-{2-[2-(5,7-Dimethyl-imidazo[1,2-a]pyrimidin-2-yl)-ethyl]-4-thiazol-5-yl-imidazol-1-yl}-3-methoxy-propan-2-ol]
9.2 nM	COc1ccc(C)n2nc(CCc3nc(-c4cncs4)cn3C)nc12 [8-Methoxy-5-methyl-2-[2-(1-methyl-4-thiazol-5-yl-1H-imidazol-2-yl)-ethyl]-[1,2,4]triazolo[1,5-a]pyridine]
14 nM	Cc1cc(C)n2cc(CCc3nc(-c4cccs4)cn3CC(O)CF)nc2n1 (stereo not drawn) [1-{2-[2-(5,7-Dimethyl-imidazo[1,2-a]pyrimidin-2-yl)-ethyl]-4-thiophen-2-yl-imidazol-1-yl}-3-fluoro-propan-2-ol]
38 nM	Cc1cc(C)n2nc(CCc3nc(-c4ccc(C)o4)cn3C)nc2n1 [5,7-Dimethyl-2-{2-[1-methyl-4-(5-methyl-furan-2-yl)-1H-imidazol-2-yl]-ethyl}-[1,2,4]triazolo[1,5-a]pyrimidine]

More lines, now with the values behind:

SMILES	IC50
COc1cccn2nc(/C=C/c3nc(-c4ccoc4)cn3C)nc12 [2-[(E)-2-(4-Furan-3-yl-1-methyl-1H-imidazol-2-yl)-vinyl]-8-methoxy-[1,2,4]triazolo[1,5-a]pyridine]	47 nM
COc1cccn2nc(/C=C/c3nc(-c4cscc4C)cn3C)nc12 [8-Methoxy-2-{(E)-2-[1-methyl-4-(4-methyl-thiophen-3-yl)-1H-imidazol-2-yl]-vinyl}-[1,2,4]triazolo[1,5-a]pyridine]	55 nM
COc1ccc(C)n2nc(CCc3nc(-c4cccnc4)cn3C)nc12 [8-Methoxy-5-methyl-2-[2-(1-methyl-4-pyridin-3-yl-1H-imidazol-2-yl)-ethyl]-[1,2,4]triazolo[1,5-a]pyridine]	24 nM
Cc1cccc2nc(CCc3nc(-c4cccnc4)cn3C)nn12 [5-Methyl-2-[2-(1-methyl-4-pyridin-3-yl-1H-imidazol-2-yl)-ethyl]-[1,2,4]triazolo[1,5-a]pyridine]	71 nM
Cc1cc(C)n2cc(/C=C/c3nc(-c4ccco4)cn3C)nc2n1 [2-[(E)-2-(4-Furan-2-yl-1-methyl-1H-imidazol-2-yl)-vinyl]-5,7-dimethyl-imidazo[1,2-a]pyrimidine]	25 nM
Cc1ccc(-c2cn(C)c(/C=C/c3nc4c(F)cccn4n3)n2)o1 [8-Fluoro-2-{(E)-2-[1-methyl-4-(5-methyl-furan-2-yl)-1H-imidazol-2-yl]-vinyl}-[1,2,4]triazolo[1,5-a]pyridine]	520 nM
Cc1cccc2nc(CCc3nc(-c4cccs4)cn3[C@@H](C)CO)nn12 [(S)-2-{2-[2-(5-Methyl-[1,2,4]triazolo[1,5-a]pyridin-2-yl)-ethyl]-4-thiophen-2-yl-imidazol-1-yl}-propan-1-ol]	6.4 nM
COc1ccc(C)n2nc(CCc3nc(-c4cccs4)c[nH]3)nc12 [8-Methoxy-5-methyl-2-[2-(4-thiophen-2-yl-1H-imidazol-2-yl)-ethyl]-[1,2,4]triazolo[1,5-a]pyridine]	1.1 nM
Cc1cc(C)n2cc(/C=C/c3nc(-c4ccsc4)cn3C)nc2n1 [5,7-Dimethyl-2-[(E)-2-(1-methyl-4-thiophen-3-yl-1H-imidazol-2-yl)-vinyl]-imidazo[1,2-a]pyrimidine]	56 nM
COc1ccc(C)n2nc(CCc3nc(-c4ccsc4)cn3C)nc12 [8-Methoxy-5-methyl-2-[2-(1-methyl-4-thiophen-3-yl-1H-imidazol-2-yl)-ethyl]-[1,2,4]triazolo[1,5-a]pyridine]	1.7 nM
Cc1ncc(C)n2nc(CCc3nc(-c4ccoc4)cn3C)nc12 [2-[2-(4-Furan-3-yl-1-methyl-1H-imidazol-2-yl)-ethyl]-5,8-dimethyl-[1,2,4]triazolo[1,5-a]pyrazine]	2.9 nM
COc1ccc(C)n2nc(CCc3nc(-c4cccs4)cn3CCN3CCOCC3)nc12 [8-Methoxy-5-methyl-2-{2-[1-(2-morpholin-4-yl-ethyl)-4-thiophen-2-yl-1H-imidazol-2-yl]-ethyl}-[1,2,4]triazolo[1,5-a]pyridine]	0.33 nM
COc1ccc(C)n2nc(/C=C/c3nc(-c4cccs4)cn3C)nc12 [8-Methoxy-5-methyl-2-[(E)-2-(1-methyl-4-thiophen-2-yl-1H-imidazol-2-yl)-vinyl]-[1,2,4]triazolo[1,5-a]pyridine]	2.7 nM
Cc1cc(C)n2cc(CCc3nc(-c4cccs4)cn3COCC[Si](C)(C)C)nc2n1 [5,7-Dimethyl-2-{2-[4-thiophen-2-yl-1-(2-trimethylsilanyl-ethoxymethyl)-1H-imidazol-2-yl]-ethyl}-imidazo[1,2-a]pyrimidine]	9.6 nM
Cc1ncc(C)n2nc(CCc3nc(-c4nccs4)cn3C)nc12 [5,8-Dimethyl-2-[2-(1-methyl-4-thiazol-2-yl-1H-imidazol-2-yl)-ethyl]-[1,2,4]triazolo[1,5-a]pyrazine]	2.7 nM
Cc1ccc(-c2cn(C)c(CCc3nc4c(F)cccn4n3)n2)o1 [8-Fluoro-2-{2-[1-methyl-4-(5-methyl-furan-2-yl)-1H-imidazol-2-yl]-ethyl}-[1,2,4]triazolo[1,5-a]pyridine]	94 nM
Cc1cccc2nc(CCc3nc(-c4cccs4)c[nH]3)nn12 [5-Methyl-2-[2-(4-thiophen-2-yl-1H-imidazol-2-yl)-ethyl]-[1,2,4]triazolo[1,5-a]pyridine]	0.54 nM
